These results are taken from patent US10144732B2 (BIOGEN MA INC., priority 2014, dated 2018).

As a reminder, the pIC50 is the negative decadic logarithm of the IC50, by convention in mol/L.

pIC50: −log10 of the molar value. Where a name gives a salt, the structure may show the parent alone.

The first test deals with T1, Human ATX protein (Homo sapiens, UniProt Q13822).
T1 construct: made in house
As to the kind of experiment: ATX biochemical assay (FRET, FS-3 substrate). Conditions: FRET assay, FS-3 2 μM, ATX 1.0 μg/mL, 30 minutes preincubation, 2 hours reaction at room temperature; read-out: IC50. In short, it runs like this:
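In-house human ATX (1.0 μg/mL final) was preincubated with compound for 30 min at room temperature in Tris buffer pH 7.4 with 1 mg/mL fatty acid free-BSA. FS-3 substrate (2 μM final) was then hydrolysed for 2 hours at room temperature, protected from light, and read as fluorescence at ex 485/em 538 nm.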
Turning to `CC1CCC(CC(=O)N2CCc3c(C(F)(F)F)nn(Cc4ccc(Cl)cc4F)c3C2)CC1` (centres unmarked) [Example 1-21, 1-(1-(4-Chloro-2-fluorobenzyl)-3-(trifluoromethyl)-4,5-dihydro-1H-pyrazolo[3,4-c]pyridin-6(7H)-yl)-2-(4-methylcyclohexyl)ethanone], the pIC50 was not below 7.00.

`CC(=O)N1CCCC(CC(=O)N2CCc3c(C(F)(F)F)nn(Cc4ccc(F)cc4)c3C2)C1` (centres unmarked) [Example 17-1]: the pIC50 was not below 7.00. Still for that read-out and setting: in the case of `CC(C)N1CCC(CC(=O)N2CCc3c(C(F)(F)F)nn(Cc4ccc(F)cc4)c3C2)C1` (centres unmarked) [Example 10-6, 1-(1-(4-Fluorobenzyl)-3-(trifluoromethyl)-4,5-dihydro-1H-pyrazolo[3,4-c]pyridin-6(7H)-yl)-2-(1-isopropylpyrrolidin-3-yl)ethanone] it was not below 7.00. Same read-out and setting: the same measure for `O=C(CC1CCNC(C(F)(F)F)C1)N1CCc2c(C(F)(F)F)nn(Cc3ccc(Cl)cc3F)c2C1` (centres unmarked) [Example 9-7, 1-(1-(4-Chloro-2-fluorobenzyl)-3-(trifluoromethyl)-4,5-dihydro-1H-pyrazolo[3,4-c]pyridin-6(7H)-yl)-2-(2-(trifluoromethyl)piperidin-4-yl)ethanone TFA salt]: not below 7.00; for `CCCC1CC(CC(=O)N2CCc3c(C(F)(F)F)nn(Cc4ccc(F)cc4)c3C2)CCN1C` (centres unmarked) [Example 10-8, 1-(1-(4-Fluorobenzyl)-3-(trifluoromethyl)-4,5-dihydro-1H-pyrazolo[3,4-c]pyridin-6(7H)-yl)-2-(1-methyl-2-propylpiperidin-4-yl)ethanone acid TFA salt]: not below 7.00; for `O=C(CC12CCC(C(=O)O)(CC1)C2)N1CCc2c(C(F)(F)F)nn(Cc3ccc(Cl)cc3F)c2C1` [Example 5-52, 4-(2-(1-(4-Chloro-2-fluorobenzyl)-3-(trifluoromethyl)-4,5-dihydro-1H-pyrazolo[3,4-c]pyridin-6(7H)-yl)-2-oxoethyl)bicyclo[2.2.1]heptane-1-carboxylic acid]: not below 7.00. On the same count and under the same terms, the same measure for `O=C(O)C1CC(CC(=O)N2CCc3c(C(F)(F)F)nn(Cc4ccc(Cl)cc4F)c3C2)C1` (mixture of isomers) [Example 6-8, 3-(2-(1-(4-Chloro-2-fluorobenzyl)-3-(trifluoromethyl)-4,5-dihydro-1H-pyrazolo[3,4-c]pyridin-6(7H)-yl)-2-oxoethyl)cyclobutanecarboxylic acid]: not below 7.00; for `CCOC(=O)C1CCC(CC(=O)N2CCc3c(C(F)(F)F)nn(Cc4cccc(F)c4)c3C2)CC1` (centres unmarked) [Example 1-18, Ethyl 4-(2-(1-(3-fluorobenzyl)-3-(trifluoromethyl)-4,5-dihydro-1H-pyrazolo[3,4-c]pyridin-6(7H)-yl)-2-oxoethyl)cyclohexanecarboxylate]: not below 7.00; for `O=C(O)[C@H]1C2C3C[C@@H]1C(CC(=O)N1CCc4c(C(F)(F)F)nn(Cc5ccc(F)cc5)c4C1)C32` (stereo partly drawn) [Example 6-17, (3R,4R)-5-(2-(1-(4-Fluorobenzyl)-3-(trifluoromethyl)-4,5-dihydro-1H-pyrazolo[3,4-c]pyridin-6(7H)-yl)-2-oxoethyl)tricyclo[2.2.1.02,6]heptane-3-carboxylic acid]: not below 7.00. `O=C(Cc1ccc(F)cc1)N1CCc2c(C(F)(F)F)nn(Cc3ccc(Cl)cc3F)c2C1` [Example 1-12, 1-(1-(4-Chloro-2-fluorobenzyl)-3-(trifluoromethyl)-4,5-dihydro-1H-pyrazolo[3,4-c]pyridin-6(7H)-yl)-2-(4-fluorophenyl)ethanone]: the pIC50 was not below 7.00.

As to `O=C(CC1CC(N2CCC2)C1)N1CCc2c(C(F)(F)F)nn(Cc3ccc(F)cc3)c2C1` (centres unmarked) [Example 22-1, 2-(3-(Azetidin-1-yl)cyclobutyl)-1-(1-(4-fluorobenzyl)-3-(trifluoromethyl)-4,5-dihydro-1H-pyrazolo[3,4-c]pyridin-6(7H)-yl)ethanone TFA salt], the negative logarithm of the IC50 (pIC50) is not below 7.00. On the same count and under the same terms, in the case of `O=C(CC1CCNC1)N1CCc2c(C(F)(F)F)nn(Cc3ccc(F)cc3)c2C1` (centres unmarked) [Example 9-23, 1-(1-(4-Fluorobenzyl)-3-(trifluoromethyl)-4,5-dihydro-1H-pyrazolo[3,4-c]pyridin-6(7H)-yl)-2-(pyrrolidin-3-yl)ethanone hydrochloride] it was not below 7.00; in that of `O=C(O)CC1CCN(CC(=O)N2CCc3c(C(F)(F)F)nn(Cc4ccc(F)cc4)c3C2)CC1` [Example 13-15, 2-(1-(2-(1-(4-Fluorobenzyl)-3-(trifluoromethyl)-4,5-dihydro-1H-pyrazolo[3,4-c]pyridin-6(7H)-yl)-2-oxoethyl)piperidin-4-yl)acetic acid TFA salt], not below 7.00; in that of `COC(=O)CC1CN(CC(=O)N2CCc3c(C(F)(F)F)nn(Cc4ccc(F)cc4)c3C2)C1` [Example 12-19, Methyl 2-(1-(2-(1-(4-fluorobenzyl)-3-(trifluoromethyl)-4,5-dihydro-1H-pyrazolo[3,4-c]pyridin-6(7H)-yl)-2-oxoethyl)azetidin-3-yl)acetate TFA salt], not below 7.00.

Take `CCC1CC(CC(=O)N2CCc3c(C(F)(F)F)nn(Cc4ccc(F)cc4)c3C2)CCN1` (centres unmarked) [Example 9-11, 2-(2-Ethylpiperidin-4-yl)-1-(1-(4-fluorobenzyl)-3-(trifluoromethyl)-4,5-dihydro-1H-pyrazolo[3,4-c]pyridin-6(7H)-yl)ethanone TFA salt]: the negative-log IC50 (pIC50) was not below 7.00.

Turning to `O=C(CN[C@H]1CC[C@@H](C(=O)O)CC1)N1CCc2c(C(F)(F)F)nn(Cc3ccc(F)cc3)c2C1` [Example 13-30, cis-4-(2-(1-(4-Fluorobenzyl)-3-(trifluoromethyl)-4,5-dihydro-1H-pyrazolo[3,4-c]pyridin-6(7H)-yl)-2-oxoethylamino)cyclohexanecarboxylic acid TFA salt], the negative-log IC50 (pIC50) was not below 7.00. As for `CCOC(=O)C1CCC(OC(=O)N2CCc3c(C(F)(F)F)nn(Cc4ccc(Cl)cc4F)c3C2)CC1` (centres unmarked) [Example 4-1, 4-(Ethoxycarbonyl)cyclohexyl1-(4-chloro-2-fluorobenzyl)-3-(trifluoromethyl)-4,5-dihydro-1H-pyrazolo[3,4-c]pyridine-6(7H)-carboxylate], the pIC50 is not below 7.00. As to `O=C(C[C@H]1CC[C@H](C(=O)O)CC1)N1CCc2c(CO)nn(Cc3ccc(F)cc3)c2C1` [Example 5-45, trans-4-(2-(1-(4-Fluorobenzyl)-3-(hydroxymethyl)-4,5-dihydro-1H-pyrazolo[3,4-c]pyridin-6(7H)-yl)-2-oxoethyl)cyclohexanecarboxylic acid], the pIC50 is not below 7.00. As to `COC(=O)[C@H]1CC[C@@H](NC(=O)N2CCc3c(C(F)(F)F)nn(Cc4ccc(Cl)cc4F)c3C2)CC1` [Example 3-1, cis-Methyl 4-(1-(4-chloro-2-fluorobenzyl)-3-(trifluoromethyl)-4,5,6,7-tetrahydro-1H-pyrazolo[3,4-c]pyridine-6-carboxamido)cyclohexanecarboxylate], the pIC50 is not below 7.00.

The test is the same for the next values; noted with them: IC50, FRET assay, FS-3 2 μM, ATX 1.0 μg/mL, 30 minutes preincubation, 2 hours reaction at room temperature.
`O=C(O)C1CC2CCCC(C1)N2CC(=O)N1CCc2c(C(F)(F)F)nn(Cc3ccc(F)cc3)c2C1` (centres unmarked) [Example 13-6, 9-(2-(1-(4-Fluorobenzyl)-3-(trifluoromethyl)-4,5-dihydro-1H-pyrazolo[3,4-c]pyridin-6(7H)-yl)-2-oxoethyl)-9-azabicyclo[3.3.3.1]nonane-3-carboxylic acid] showed a pIC50 not below 7.00.
